This note sets out measurements from patent US20160315271A1, “ORGANIC TRANSISTOR, COMPOUND, ORGANIC SEMICONDUCTOR MATERIAL FOR NON-LIGHT-EMITTING ORGANIC SEMICONDUCTOR DEVICE, MATERIAL FOR ORGANIC TRANSISTOR, COATING SOLUTION FOR NON-LIGHT-EMITTING ORGANIC SEMICONDUCTOR DEVICE, AND ORGANIC SEMICONDUCTOR FILM FOR NON-LIGHT-EMITTING ORGANIC SEMICONDUCTOR DEVICE” (FUJIFILM Corporation, priority 2014, published 2016).

The nature of this data set: Solubility in toluene.
Where [1] appears, read: 20 mg mixed with toluene (1 mL).
Where [2] appears, read: organic solvent or mixture, thermodynamic from solid.

For `CCCCCCCCc1cc2cc3ccc4cc5cc(CCCCCCCC)n(C)c5cc4c3cc2n1C` [Compound 3], the Solubility (as a rule, the dissolved amount per volume that the medium holds) under setting [1] is reported as “A (Completely dissolved.)”.
Turning to `CCCCCCCCCCCCc1cc2cc3ccc4cc5cc(CCCCCCCCCCCC)sc5cc4c3cc2s1` [Compound 5], under setting [1], the Solubility result was “A (Completely dissolved.)”.
The same measure, in the same setting: the value for `CCCCCCCCc1ccc(-c2cc3cc4ccc5cc6cc(-c7ccc(CCCCCCCC)cc7)sc6cc5c4cc3s2)cc1` [Compound 11] was “A (Completely dissolved.)”; that for `CCCCCCCCc1ccc(-c2cc3cc4ccc5cc6cc(-c7ccc(CCCCCCCC)s7)sc6cc5c4cc3s2)s1` [Compound 16] was “A (Completely dissolved.)”; that for `CCCCCCCCc1csc(-c2cc3cc4ccc5cc6cc(-c7cc(CCCCCCCC)cs7)sc6cc5c4cc3s2)c1` [Compound 24] was “A (Completely dissolved.)”.
For the compound `Cc1c(C)n(-c2ccccc2)c2c1ccc1c3ccc4c(C)c(C)n(-c5ccccc5)c4c3ccc12` [compound 1, reference compound], under setting [2], the Solubility is < 20 mg/mL.
On the same count and under the same terms, the figure for `c1ccc(-n2c3ccccc3c3cc4ccc5cc6c7ccccc7n(-c7ccccc7)c6cc5c4cc32)cc1` [compound 2, reference compound] is < 20 mg/mL.
